The values below are quoted from earlier work in patent publication US20230270635A1, “METHODS AND COMPOSITIONS FOR COSMETIC APPLICATIONS” (GLO Pharma, Inc., priority 2021, published 2023).

For this data set the following is noted: non-ionic surfactants with HLB of 10 or less, Table 1.
Regarding `CCCCCCCCCCCCCCCCOCCOCCO` [Ceteth-2, Diethylene glycol hexadecyl ether], the HLB entry is recorded as “HLB = 5.3”.
Take `CCCCCCCC(=O)OCC(O)CO` (stereo not shown) [Glyceryl caprylate]: the HLB result was “HLB = 5-6”.
On to `CCCCCCCCCCCC(=O)OCC(O)CO` (stereo not shown) [Glyceryl laurate], for which the HLB result is reported as “HLB = 5.2”.
With `CCCCCCCCCCCCCCCCCC(=O)OCC(O)CO` (stereo not shown) [Glyceryl stearate], the HLB result is on record as “HLB = 3.8”.
Turning to `CCCCCCCCCCCCCCCCCC(=O)OCCOC(=O)CCCCCCCCCCCCCCCCC` [Glycol distearate], the HLB result is recorded as “HLB = 1”.
`CCCCCCCCCCCCCCCCCC(=O)OCCO` [Glycol stearate]: the HLB entry is given as “HLB = 2.9”.
As to `CCCCCCCCCCCCCCCCCCOCCOCCO` [Steareth-2, 2-(2-octadecoxyethoxy)ethanol], the HLB entry is recorded as “HLB = 4.9”.
Turning to Glyceryl stearate SE, the HLB result is recorded as “HLB = 5.8”.
As to PEG-8 dioleate, the HLB result is recorded as “HLB = 7.2”.
With PEG-8 distearate, the HLB entry was “HLB = 8”.
As to PEG-30 dipolyhydroxy-stearate, the HLB entry is reported as “HLB = 5.5”.
For “Polyoxyethylene (2) Oleyl Ether [Oleth-2]”, the HLB entry was “HLB = 4.9”.
Turning to “Polyoxyethylene (3) Oleyl Ether [Oleth-3]”, the HLB result is given as “HLB = 6.6”.
As for “Polyoxyethylene (4) dilaurate [PEG-4 dilaurate]”, the HLB result was “HLB = 6”.
As to “Polyoxyethylene (5) Oleyl Ether [Oleth-5]”, the HLB entry is given as “HLB = 9”.
Take “Polyoxyethylene (8) dilaurate [PEG-8 dilaurate]”: the HLB result was “HLB = 10”.
Regarding Polysorbate 61, the HLB entry is recorded as “HLB = 9.6”.
With Propylene glycol monolaurate, the HLB entry is recorded as “HLB=3”.
Consider Sorbitan Isostearate, for which the HLB result is “HLB = 4.7”.
Turning to Sorbitan monolaurate, the HLB result was “HLB = 8.6”.
Turning to Sorbitan monooleate, the HLB entry was “HLB = 4.3”.
Take Sorbitan monopalmitate: the HLB entry is listed as “HLB = 6.7”.
As to Sorbitan monostearate, the HLB entry was “HLB = 4.7”.
With Sorbitan sesquioleate, the HLB result was “HLB = 3.7”.
In the case of Sorbitan trioleate, the HLB result is “HLB = 1.8”.
